# Reference: patent publication US20090082322A1, “Gender Differences in Experimental Aortic Aneurysm Formation” (THE REGENTS OF THE UNIVERSITY OF MICHIGAN, priority 2004, published 2009)
# Assays:
# MMP-2 = MMP-2 activity in media of IL-1β stimulated aortic explants from pre-treated male rats; format: in vivo, rat
# Protocol: Experiment III: Male rats underwent sustained 17-β-estradiol exposure using extended-release, subcutaneously implanted pellets prior to sacrifice and aortic explanation. The explants were stimulated with IL-1β, and MMP-2 activity in the conditioned media was then determined.
# [1] = Serum estradiol levels after pellet implantation; format: in vivo; conditions: at 2 to 3 weeks, 21-day slow-release 0.1-mg pellet s.c.; control rats 15.0±2.2
# From the text: In other experiments, male rats were randomized to implantation of an estrogen pellet or sham implantation (n=13, each). The former involved the subcutaneous implantation of a 21-day slow-release 0.1-mg 17-β-estradiol pellet (Innovative Research of America, Sarasota, Fla.) in the posterior neck. Sham rats underwent the same implantation procedure without insertion of any pellet. This particular estradiol dose results in serum estradiol levels at 2 to 3 weeks of 44.7±6.1 pg/mL compared with 15.0±2.2 pg/mL in control rats (P<0.05). Rat aortas from both groups were subjected to elastase perfusion 5 days later. The aortas were then removed for study 7 or 14 days after elastase perfusion.
# Male Sprague-Dawley rats (190 g to 210 g) were obtained from Charles River Laboratories. Subcutaneous neck implantation of a 21-day slow release 0.1 mg 17-β-estradiol pellet (Innovative Research of America) was performed under general inhalational anesthesia. This particular estradiol dose results in serum estradiol levels at 2 to 3 weeks of 44.7±6.1 pg/mL compared with 15.0±2.2 pg/mL in control rats (p<0.05). Three weeks after pellet implantation, the infrarenal aorta was explanted under general anesthesia. The aorta was briefly rinsed free of blood and debris with cold 1×PBS containing antibiotics, cut into 1-mm rings, and incubated for 48 hours in 1 mL of serum-free DMEM containing antibiotics and IL-1β. […]
# MMP-9 = MMP-9 activity (gelatin zymography) in media of IL-1β stimulated male RASMCs; format: cell-based, Sprague-Dawley rats; conditions: 10^−10 to 10^−6 mol/L, 48 hours with concurrent IL-1β stimulation
# Protocol: Experimental interventions were carried out with confluent RASMCs at passages 3 through 8 in serum-free DMEM supplemented with antibiotics. Confluent monolayers of RASMCs were incubated in T-75 plates with IL-1β (2 ng/mL, from Sigma) for 72 hours. This concentration of IL-1β is found in human aortic aneurysms. After 72 hours of IL-1β stimulation, the RASMC-conditioned medium was collected for measurements of TIMP-1 activity, MMP-9 activity, and MMP-9 protein levels. The remaining SMCs were lysed in 1% sodium dodecyl sulfate (SDS), and total cellular protein was determined by a bicinchoninic acid protein assay (Pierce). In separate experiments, the previous protocol was followed, but male RASMCs were incubated with 5 different concentrations of 17-β-estradiol (1×10^−10 to 1×10^−6 mol/L) for 48 hours with concurrent IL-1β stimulation. Zymography supplies were purchased from Novex. MMP distribution after treatment of RASMC with IL-1β and increasing concentrations of 17-β-estradiol was determined. Gelatin substrate zymograms were prepared using precast 10% SDS-polyacrylamide gels containing 1 mg/mL of gelatin. Equal volumes of experimental media samples were diluted into 2× tris-glycine SDS sample buffer and electrophoretically separated under nonreducing conditions. […]
# [2] = tested on: elastase-perfused infrarenal abdominal aorta of male rats; assay: Elastase perfusion aneurysm model after estrogen pellet implantation, aortic diameter; format: in vivo, Sprague-Dawley rats; conditions: 0.1-mg 21-day slow-release pellet s.c.
# Protocol: Pancreatic porcine elastase perfusion of the rat aortas was performed as described previously. (Anidjar S, et al., Circulation, 82:973-981 (1990)). Male and female rats (n=15, each) were anesthetized with 2-2.5% isoflurane inhalation, and the infrarenal abdominal aorta was isolated under sterile conditions. Digital video micrometry was performed to directly measure outer aortic diameter. Specifically, images of the aorta were obtained using a Spot Insight Color Optical Camera (Diagnostic Instruments, Sterling Heights, Mich.) attached to an operating microscope (Nikon, Melville, N.Y.). Aortic diameters were then measured at the level of the left renal vein, the mid-infrarenal aorta, and the aortic bifurcation in triplicate using Image Pro Express software (Media Cybernetics, Inc, Silver Spring, Md.). Temporary proximal and distal aortic control was obtained using temporary 4-0 cotton suture loops, following which an aortotomy was made near the aortic bifurcation with a 30-gauge needle. […] At 7 or 14 days, aortas were re-exposed and aortic diameters were re-measured in vivo. […] The infrarenal aorta was then removed and subjected to histological study, immunohistochemistry, and quantitative polymerase chain reaction (PCR). […]
structure (smiles),measurement,setting,value
C[C@]12CC[C@@H]3c4ccc(O)cc4CC[C@H]3[C@@H]1CC[C@@H]2O [17-β-estradiol],MMP-2 activity in the media of whole-aortic explants,"MMP-2; male rats pre-treated with extended-release s.c. pellets, explants stimulated with IL-1β, control 4.35×10^5, P=0.002",2.0×10^5 O.D./mg protein
same,decrease in MMP-2 activity in the media of whole-aortic explants,"MMP-2; male rats pre-treated, vs control",2 fold
same,serum estradiol levels,[1],44.7 ± 6.1 pg/mL
same,MMP-9 activity in male RASMC media,MMP-9,no difference
same,aortic expansion (increase in aortic diameter),"[2]; 7 days after elastase perfusion, sham 197%±39%, P=0.010",124%±19
same,aneurysm size (increase in aortic diameter),"[2]; 14 days after elastase perfusion, sham 538%±105, P=0.0226",241%±57
